The source of these data is PubChem BioAssay (NCI).

Some test systems named below: CAKI-1 renal; HT29 colon; LOX IMVI melanoma; MDA-MB-435; OVCAR-5 ovarian; SK-MEL-2 melanoma; SK-MEL-5 melanoma; SNB-19 CNS; UACC-257 melanoma; RXF 393 renal.
Test in all cases: growth of human tumour cells (NCI), 48 h

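A five-concentration, 48-hour dose response in 96-well plates underlies each endpoint, interpolated linearly between surrounding concentrations. At the GI50, growth is halved. TGI is the concentration that stops growth completely.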

Take `COc1cc2oc3c(c(=O)c2c(O)c1/C=C/C(C)C)C(C=C(C)C)Oc1cc(O)ccc1-3` (stereo not given): the TGI in the experiment with CAKI-1 renal is 32.2 µM; in the experiment with HT29 colon, 28.8 µM; in the experiment on LOX IMVI melanoma, 27.7 µM; in the experiment with MDA-MB-435, 30.8 µM; in the experiment with OVCAR-5 ovarian it was 31.1 µM; in the experiment with SK-MEL-2 melanoma, 29.9 µM. Also, the TGI with SK-MEL-5 melanoma came to 39.9 µM; in the experiment with SNB-19 CNS it was 30.6 µM; with UACC-257 melanoma, 32.6 µM.
With `O=c1c2cc3c(cc2c2cccc4c2n1CCC4)OCO3`, the TGI was above 100 µM in the experiment on CAKI-1 renal; above 100 µM with HT29 colon; above 100 µM in the experiment on LOX IMVI melanoma; above 100 µM in the experiment with OVCAR-5 ovarian; 92.2 µM in the experiment on RXF 393 renal; above 100 µM in the experiment with SK-MEL-2 melanoma. The TGI with SK-MEL-5 melanoma, in the experiment with SNB-19 CNS and in the experiment with UACC-257 melanoma was above 100 µM throughout.
Take `Cc1c2c(c(C)c3c1[nH]c1ccccc13)CN(C)CC2`: the TGI is 27.4 µM with CAKI-1 renal; 36.3 µM in the experiment on HT29 colon; 29.3 µM in the experiment with LOX IMVI melanoma; above 100 µM in the experiment on OVCAR-5 ovarian; 34.6 µM in the experiment on RXF 393 renal; 31.1 µM in the experiment with SK-MEL-2 melanoma. Further, the TGI in the experiment on SK-MEL-5 melanoma was 26.1 µM; in the experiment with SNB-19 CNS it was above 100 µM; in the experiment on UACC-257 melanoma it was 31.4 µM.
On to `COC(=O)Cc1cc(=O)[nH]c2c1C(=O)CCC2`, for which the TGI in the experiment with HT29 colon, with OVCAR-5 ovarian, in the experiment on RXF 393 renal, with SK-MEL-2 melanoma, in the experiment with SK-MEL-5 melanoma and in the experiment on SNB-19 CNS was above 100 µM in each case. In addition, the TGI with UACC-257 melanoma was above 100 µM.
For `NC(=O)NC1C(C(=O)O)N(Cc2ccccc2)C(=O)N1Cc1ccccc1` (stereo not given), the TGI in the experiment on CAKI-1 renal, in the experiment with HT29 colon, in the experiment with LOX IMVI melanoma, with OVCAR-5 ovarian, in the experiment on SK-MEL-2 melanoma and with SK-MEL-5 melanoma was above 100 µM throughout. Further, the TGI in the experiment on SNB-19 CNS and in the experiment on UACC-257 melanoma was above 100 µM in each case.
`OCCN(CCO)c1cccc(N(CCO)CCO)n1`: the TGI with CAKI-1 renal, with LOX IMVI melanoma, in the experiment with RXF 393 renal, in the experiment with SK-MEL-2 melanoma, with SK-MEL-5 melanoma and in the experiment on SNB-19 CNS was above 100 µM throughout. This compound gave a TGI with UACC-257 melanoma above 100 µM.
Regarding `COc1ccc(C(=O)C#Cc2c[nH]c(=O)[nH]c2=O)cc1`, the TGI in the experiment on CAKI-1 renal is 24.8 µM; with HT29 colon it was 28 µM; in the experiment on LOX IMVI melanoma, 9.52 µM; in the experiment with OVCAR-5 ovarian it was 31 µM; in the experiment on RXF 393 renal it was 18.3 µM; with SK-MEL-2 melanoma, 21.4 µM. The TGI in the experiment with SK-MEL-5 melanoma stood at 27.9 µM; in the experiment with SNB-19 CNS it was 44.7 µM; in the experiment with UACC-257 melanoma, 27.4 µM.
On to `CCC1(CN(C)C)CC/C(=C\c2ccc(OC)c(OC)c2)C1=O` (stereo not given), for which the TGI with CAKI-1 renal, in the experiment on HT29 colon, in the experiment on LOX IMVI melanoma, with OVCAR-5 ovarian, with RXF 393 renal and with SK-MEL-2 melanoma was above 100 µM throughout. Besides, the TGI in the experiment on SK-MEL-5 melanoma, in the experiment with SNB-19 CNS and with UACC-257 melanoma was above 100 µM throughout.
On to `CCCCNc1ccc(Nc2ccccc2)cc1`, for which the GI50 with CAKI-1 renal was 18.6 µM; in the experiment on HT29 colon it was 4.37 µM; with LOX IMVI melanoma, 5.85 µM; in the experiment with MDA-MB-435, 3.29 µM; in the experiment with OVCAR-5 ovarian, 29 µM; in the experiment on SK-MEL-5 melanoma, 2.78 µM. Also, the GI50 in the experiment on SNB-19 CNS is 5.19 µM. The TGI with CAKI-1 renal is 88.5 µM; with HT29 colon, 25.1 µM; in the experiment with LOX IMVI melanoma, 21.5 µM; in the experiment with MDA-MB-435, 24.3 µM; with OVCAR-5 ovarian, above 100 µM; in the experiment with SK-MEL-5 melanoma, 10.1 µM. Further, the TGI with SNB-19 CNS is above 100 µM.
`O=C1CCCCC12CCC/C2=N\O` (stereo not given): the TGI in the experiment with CAKI-1 renal, in the experiment with RXF 393 renal, in the experiment on SK-MEL-2 melanoma, with SK-MEL-5 melanoma, in the experiment with SNB-19 CNS and in the experiment with UACC-257 melanoma was above 100 µM each time.
For `O=C(NCCCl)SCCO`, the TGI in the experiment with HT29 colon, with OVCAR-5 ovarian, with RXF 393 renal, in the experiment with SK-MEL-2 melanoma, in the experiment on SNB-19 CNS and in the experiment on UACC-257 melanoma was above 100 µM each time.
In the case of `CCC(C)C(=O)OCC(=O)c1ccc(-c2ccccc2)cc1` (stereo not given), the TGI in the experiment on CAKI-1 renal, with HT29 colon, with LOX IMVI melanoma, in the experiment with MDA-MB-435, in the experiment with OVCAR-5 ovarian and in the experiment on SK-MEL-2 melanoma was above 100 µM in each case. In addition, the TGI with SK-MEL-5 melanoma was 72.6 µM; in the experiment on SNB-19 CNS it was above 100 µM; in the experiment with UACC-257 melanoma it was 87.4 µM.
As for `Cc1ccc(NC(=O)CCc2n[nH]c(=S)o2)cc1`, the TGI with CAKI-1 renal, in the experiment on HT29 colon, in the experiment on LOX IMVI melanoma, with OVCAR-5 ovarian, in the experiment with RXF 393 renal and in the experiment with SK-MEL-5 melanoma was above 100 µM in each case. The TGI with SNB-19 CNS and in the experiment on UACC-257 melanoma was above 100 µM each time.
In the case of `Cc1ccc(S(=O)(=O)N/N=C/C(C)C)cc1`, the TGI in the experiment with CAKI-1 renal, in the experiment with HT29 colon, in the experiment with LOX IMVI melanoma, in the experiment with OVCAR-5 ovarian, in the experiment with RXF 393 renal and in the experiment on SK-MEL-2 melanoma was above 100 µM throughout. In addition, the TGI in the experiment with SK-MEL-5 melanoma, in the experiment with SNB-19 CNS and with UACC-257 melanoma was above 100 µM in each case.
`COCCOCCOCCOc1cccc2c1C(=O)c1cccc(OCCOCCOCCOC)c1C2=O`: the TGI in the experiment on CAKI-1 renal, in the experiment with HT29 colon, in the experiment on LOX IMVI melanoma, with RXF 393 renal, in the experiment with SK-MEL-5 melanoma and with SNB-19 CNS was above 100 µM each time. In the experiment on UACC-257 melanoma, this compound yielded a TGI above 100 µM.
Turning to `c1ccc(OCc2nnc3n2N=C(c2ccccc2)CS3)cc1`, the TGI in the experiment on CAKI-1 renal, in the experiment with HT29 colon, in the experiment on LOX IMVI melanoma, with OVCAR-5 ovarian, with RXF 393 renal and in the experiment with SK-MEL-2 melanoma was above 100 µM each time. Also, the TGI with SK-MEL-5 melanoma, in the experiment with SNB-19 CNS and in the experiment on UACC-257 melanoma was above 100 µM in each case.
